Results from patent US9096863B2, “Biosynthetic engineering of glucosinolates” (University of Denmark, priority 2008, dated 2015).
“And” between values parts separate entries of the source, which are not always exact repeats. Identical values can stand only once.

Tests used:
[1] = molecular target: T1, GGP1 (Arabidopsis thaliana, UniProt Q9M0A7); test: In-vitro assay for GGP1 activity with the standard substrate GPNA (absorbance at 405 nm); type: biochemical; set-up: His-tag (pRSET-A N-terminal leader) (N); made in house; host or cells: E. coli; conditions: 1 mM GPNA, crude E. coli extract, linear part of the GGP1 curve
T1 sequence (Q9M0A7 1-250): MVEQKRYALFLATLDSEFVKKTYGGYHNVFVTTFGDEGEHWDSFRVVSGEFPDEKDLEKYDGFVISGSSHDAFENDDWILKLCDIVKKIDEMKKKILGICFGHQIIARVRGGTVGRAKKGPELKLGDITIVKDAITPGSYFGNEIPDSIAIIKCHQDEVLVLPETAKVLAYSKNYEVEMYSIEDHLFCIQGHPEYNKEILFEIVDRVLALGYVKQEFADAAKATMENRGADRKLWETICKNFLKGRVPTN
Protocol: In vitro assays were assembled with […] of crude protein extract from a cleared E. coli lysate (before column purification) in 0.1 M Tris-HCl at pH 7.5 to a total volume of 150 μl. Assay is initiated by addition of GPNA to a final concentration of 1 mM and enzyme activity is measured by absorbance at 405 nm. Absorbance was measured with 5 minute intervals from time 0-20 minutes using a spectrophotometer.

[2] = molecular target: T1, GGP1; conditions: GS-X as substrate, 10 to 90 μM; purified recombinant His-tagged GGP1; ± SE; Michaelis-Menten fit
Protocol: Recombinant GGP1 was expressed in E. coli from the vector pRSET-A (Invitrogen) as an N-terminal His-tag fusion. Cells were grown in LB medium and induced by adding 0.02 mM IPTG at an OD600 of 0.1-0.4. After 16 hours of incubation at 18° C. and 220 rpm, cells were harvested and resuspended in binding buffer [100 mM Tris-HCl, 500 mM NaCl, 50 mM imidazole, pH 7.5] supplemented with 1 mM PMSF and 1 mM MgCl. Cell lysis was achieved by lysozyme treatment and subsequent sonication. Cell debris was spun down for 20 min at 20 000 g, and the supernatant was run through a Ni-NTA column. The column was washed with binding buffer, and bound protein was released with elution buffer [100 mM Tris-HCl, 500 mM NaCl, 500 mM imidazole, pH 7.5]. As a control, a parallel purification was performed for an empty pRSET-A vector.
200 ng of purified GGP1 or 200 ng of control protein were assayed in a final volume of 100 μL containing 20 mM Tris-HCl pH 7.5 and 20 μM GS-X. The reactions were stopped after 10 min upon addition of 300 μL methanol. After an overnight incubation at −20° C., the mixture was spun down for 20 min at 5 000 g and 200 μL of the supernatant were evaporated and redisolved in 50 μL of 75% methanol. Analysis was performed using the LC-MS/MS method previously described. For the determination of Km, similar assays were performed using a range of GS-X concentrations spanning from 10 to 90 μM. […]

| activity of crude extract containing recombinant GGP1 versus control extract (cleavage to p-nitroanilide) [1] | Km [2] | SMILES |
| --- | --- | --- |
| around 10 times |  | N[C@@H](CCC(=O)Nc1ccc([N+](=O)[O-])cc1)C(=O)O [GPNA, gamma-glutamyl-p-nitroanilide] |
|  | 56.6 µM and 57 µM | NC(CCC(=O)NC(CSC(Cc1ccccc1)=NO)C(=O)NCC(=O)O)C(=O)O [GS-X, S-(phenylacetohydroxymoyl)-L-glutathione] |
